Values joined by “and” are separate entries in the source; they are usually repeats but may differ in a detail not shown here. Identical values can stand only once.
Tests used:
Experiment in all cases: Affinity-purification and mass spectrometry (AP-MS) chemical proteomics, all proteins;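 on Difference: 200 µM free competitor with 20 µM biotin probe overnight in lysate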
Type in all cases: binding
[1] = molecular target: T1, proteins displaced from immobilized biotin-Cmpd 1 pulldowns (U2OS cell lysate) (Homo sapiens, UniProt P62910); settings: GN=RPL32 (P62910)
T1 construct: endogenous in cells; host or cells: U2OS
Experimental: (§1) The samples for AP-MS were prepared following pulldown procedure as previously described with minor modifications. Briefly, U2OS cells were lysed in RIPA buffer and the cell lysate was equally divided into two groups: (1) DMSO group (control group): the cell lysate was incubated with 20 μM biotin-labeled compound 1; (2) Cpmd 1 group (sample group): the cell lysate was incubated with 20 μM biotin-labeled compound 1 and 200 μM free compound 1. Each group contains three biological replicates. They were incubated overnight at 4 °C, then 30 μL streptavidin beads (Thermo Fisher, 20353) was added and incubated at 4 °C for 1 h. The beads were then washed with RIPA buffer for 3 times, 10 min/time.
(§2) Beads were rinsed twice with 50 mM TEAB, pH 7.55, before eluting proteins with 25 μL of 5% SDS, 50 mM TEAB, pH 7.55. The sample was then centrifuged at 17,000 × g for 10 min to remove any debris. Proteins were reduced with 20 mM TCEP (Thermo Fisher, 77720) and incubated at 65 °C for 30 min. The sample was cooled to room temperature and 1 μL of 0.5 M iodoacetamide acid was added and allowed to react for 20 min in dark. Phosphoric acid (12%, 2.75 μL) was added to the protein solution, followed by adding 165 μL of binding buffer (90% methanol, 100 mM TEAB, pH 7.1). The resulting solution was added to S-Trap spin column (protifi.com) and passed through the column using a bench top centrifuge (30 s spin at 4000 × g). The spin column was washed with 400 μL of binding buffer and centrifuged. This step was repeated two more times. Then trypsin was added to the protein mixture at a mass ratio of 1:25 in 50 mM TEAB, pH 8.0, and the sample was incubated at 37 °C for 4 h. Peptides were eluted with 80 μL of 50 mM TEAB, followed by 80 μL of 0.2% formic acid, and finally 80 μL of 50% acetonitrile, 0.2% formic acid. The combined peptide solution was then dried in a speed vac and resuspended in 2% acetonitrile, 0.1% formic acid, 97.9% water and placed in an autosampler vial.
(§3) Samples were analyzed by nanoLC-MS/MS (nanoRSLC, Thermo Fisher) using an Aurora series (Ion Opticks) reversed phase HPLC column (25 cm length × 75 µm inner diameter) and directly injected to an Orbitrap Eclipse (Thermo Fisher) using a 120 min gradient (mobile phase A = 0.1% formic acid, mobile phase B = 99.9% acetonitrile with 0.1% formic acid; hold 2% B for 5 min, 2–6% B in 0.1 min, 6–25% in 100 min, 25–50% in 15 min) at a flow rate of 350 nL/min. Eluted peptide ions were analyzed using a data-dependent acquisition (DDA) method with resolution settings of 120,000 and 15,000 (at m/z 200) for MS1 and MS2 scans, respectively. DDA-selected peptides were fragmented using stepped high energy collisional dissociation (27, 32, and 37%).
(§4) The data of AP-MS were analyzed as a previously described method with minor modifications. Briefly, the raw MS files were searched with MaxQuant software (version 1.6.1.1, www.maxquant.org)[56] against the UniProt human protein database (www.uniprot.org) concatenated with common contaminants and the decoy database. The mass tolerance for precursor ions was set to 20 ppm and 4.5 ppm for the first and main search, respectively. The cysteine carbamidomethylation was set as fixed modification and methionine oxidation and N-terminal acetylation as variable modifications. Enzyme specificity was set to trypsin and a maximum missed cleavage was set as 2. The 1% false discovery rate (FDR) at both peptide and protein levels was applied for the analysis. Relative protein quantification was based on the label-free quantification incorporated in the MaxQuant software. The iBAQ intensity of proteins was obtained for the control and experimental samples. The missing iBAQ intensity was replaced by a random number, which was calculated from a normal distribution with a width of 0.3 and a downshift of 1.8 defined by Perseus software (version 1.6.5.0). The P-value was calculated by performing two-sample Student’s t-test. […]

[2] = molecular target: T2, proteins displaced from immobilized biotin-Cmpd 1 pulldowns (U2OS cell lysate) (Homo sapiens, UniProt Q9UN81); settings: GN=L1RE1 (Q9UN81)
T2 construct: endogenous in cells; host or cells: U2OS
Experimental: as §1, §2, §3, §4

[3] = molecular target: T3, proteins displaced from immobilized biotin-Cmpd 1 pulldowns (U2OS cell lysate) (Homo sapiens, UniProt Q9UI42); settings: GN=CPA4 (Q9UI42)
T3 construct: endogenous in cells; host or cells: U2OS
Experimental: as §1, §2, §3, §4

[4] = molecular target: T4, proteins displaced from immobilized biotin-Cmpd 1 pulldowns (U2OS cell lysate) (Homo sapiens, UniProt P49368); settings: GN=CCT3 (P49368)
T4 construct: endogenous in cells; host or cells: U2OS
Experimental: as §1, §2, §3, §4

[5] = molecular target: T5, proteins displaced from immobilized biotin-Cmpd 1 pulldowns (U2OS cell lysate) (Homo sapiens, UniProt Q9NR12); settings: GN=PDLIM7 (Q9NR12)
T5 construct: endogenous in cells; host or cells: U2OS
Experimental: as §1, §2, §3, §4

[6] = molecular target: T6, proteins displaced from immobilized biotin-Cmpd 1 pulldowns (U2OS cell lysate) (Homo sapiens, UniProt P62424); settings: GN=RPL7A (P62424)
T6 construct: endogenous in cells; host or cells: U2OS
Experimental: as §1, §2, §3, §4

[7] = molecular target: T7, proteins displaced from immobilized biotin-Cmpd 1 pulldowns (U2OS cell lysate) (Homo sapiens, UniProt Q9BVJ6); settings: GN=UTP14A (Q9BVJ6)
T7 construct: endogenous in cells; host or cells: U2OS
Experimental: as §1, §2, §3, §4

[8] = molecular target: T8, proteins displaced from immobilized biotin-Cmpd 1 pulldowns (U2OS cell lysate) (Homo sapiens, UniProt Q6UWP8); settings: GN=SBSN (Q6UWP8)
T8 construct: endogenous in cells; host or cells: U2OS
Experimental: as §1, §2, §3, §4

[9] = molecular target: T9, proteins displaced from immobilized biotin-Cmpd 1 pulldowns (U2OS cell lysate) (Homo sapiens, UniProt P50991); settings: GN=CCT4 (P50991)
T9 construct: endogenous in cells; host or cells: U2OS
Experimental: as §1, §2, §3, §4

[10] = molecular target: T10, proteins displaced from immobilized biotin-Cmpd 1 pulldowns (U2OS cell lysate) (Homo sapiens, UniProt P19367); settings: GN=HK1 (P19367)
T10 construct: endogenous in cells; host or cells: U2OS
Experimental: as §1, §2, §3, §4

T7 sequence (Q9BVJ6 whole entry): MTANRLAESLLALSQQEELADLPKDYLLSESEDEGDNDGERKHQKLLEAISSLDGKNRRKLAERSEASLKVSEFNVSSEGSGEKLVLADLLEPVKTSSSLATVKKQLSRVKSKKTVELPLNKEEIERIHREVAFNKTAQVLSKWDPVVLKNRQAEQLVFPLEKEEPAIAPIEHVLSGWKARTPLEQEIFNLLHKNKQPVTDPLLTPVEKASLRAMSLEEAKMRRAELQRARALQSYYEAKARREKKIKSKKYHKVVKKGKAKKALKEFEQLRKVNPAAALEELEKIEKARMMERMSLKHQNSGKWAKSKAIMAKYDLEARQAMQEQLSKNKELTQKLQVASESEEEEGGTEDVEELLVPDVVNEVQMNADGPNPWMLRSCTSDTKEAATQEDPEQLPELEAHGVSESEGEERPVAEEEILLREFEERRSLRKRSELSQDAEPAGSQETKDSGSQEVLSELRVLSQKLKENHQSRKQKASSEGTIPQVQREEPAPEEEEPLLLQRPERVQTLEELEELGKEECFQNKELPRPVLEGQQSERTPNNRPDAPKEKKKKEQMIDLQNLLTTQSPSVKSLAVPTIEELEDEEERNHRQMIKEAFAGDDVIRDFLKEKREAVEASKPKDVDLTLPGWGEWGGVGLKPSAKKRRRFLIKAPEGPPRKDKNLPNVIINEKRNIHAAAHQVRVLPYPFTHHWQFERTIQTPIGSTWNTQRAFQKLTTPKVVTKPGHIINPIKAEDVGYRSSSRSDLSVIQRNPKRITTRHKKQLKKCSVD
T2 sequence (Q9UN81 whole entry): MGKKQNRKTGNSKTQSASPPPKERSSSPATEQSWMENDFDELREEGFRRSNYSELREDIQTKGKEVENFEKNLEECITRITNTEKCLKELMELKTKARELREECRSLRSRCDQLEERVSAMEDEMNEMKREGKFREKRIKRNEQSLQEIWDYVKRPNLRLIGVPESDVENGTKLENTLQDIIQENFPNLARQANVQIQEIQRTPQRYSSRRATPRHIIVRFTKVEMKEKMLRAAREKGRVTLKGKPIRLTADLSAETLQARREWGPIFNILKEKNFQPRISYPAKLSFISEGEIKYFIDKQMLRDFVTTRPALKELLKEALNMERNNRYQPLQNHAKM
T5 sequence (Q9NR12 whole entry): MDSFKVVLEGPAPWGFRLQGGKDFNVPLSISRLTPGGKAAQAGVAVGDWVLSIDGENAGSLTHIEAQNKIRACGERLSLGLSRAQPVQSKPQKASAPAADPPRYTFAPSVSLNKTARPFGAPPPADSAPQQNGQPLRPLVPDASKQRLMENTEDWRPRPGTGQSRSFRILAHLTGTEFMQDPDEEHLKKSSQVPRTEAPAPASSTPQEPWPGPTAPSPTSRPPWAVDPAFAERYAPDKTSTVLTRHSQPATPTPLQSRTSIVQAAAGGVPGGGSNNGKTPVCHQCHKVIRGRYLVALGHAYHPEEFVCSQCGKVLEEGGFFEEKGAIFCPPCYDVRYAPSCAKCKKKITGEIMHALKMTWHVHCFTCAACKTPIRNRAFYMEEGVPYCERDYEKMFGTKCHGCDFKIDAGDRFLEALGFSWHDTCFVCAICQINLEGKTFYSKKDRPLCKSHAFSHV
T8 sequence (Q6UWP8 26-590): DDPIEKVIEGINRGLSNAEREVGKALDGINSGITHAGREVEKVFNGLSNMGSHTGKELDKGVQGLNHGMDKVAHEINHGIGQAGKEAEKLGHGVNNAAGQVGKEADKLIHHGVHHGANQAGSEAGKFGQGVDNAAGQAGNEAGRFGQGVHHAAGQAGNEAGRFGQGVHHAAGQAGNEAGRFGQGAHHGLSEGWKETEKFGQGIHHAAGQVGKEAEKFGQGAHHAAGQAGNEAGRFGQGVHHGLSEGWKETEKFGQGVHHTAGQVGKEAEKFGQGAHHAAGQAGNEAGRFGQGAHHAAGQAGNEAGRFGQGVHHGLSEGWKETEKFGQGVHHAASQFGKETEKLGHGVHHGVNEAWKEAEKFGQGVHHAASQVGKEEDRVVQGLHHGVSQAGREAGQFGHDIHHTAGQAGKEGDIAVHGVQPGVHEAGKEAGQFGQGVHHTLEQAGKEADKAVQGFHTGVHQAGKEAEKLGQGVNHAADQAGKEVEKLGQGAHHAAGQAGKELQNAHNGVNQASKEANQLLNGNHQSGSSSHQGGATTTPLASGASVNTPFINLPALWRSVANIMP
T10 sequence (P19367 whole entry): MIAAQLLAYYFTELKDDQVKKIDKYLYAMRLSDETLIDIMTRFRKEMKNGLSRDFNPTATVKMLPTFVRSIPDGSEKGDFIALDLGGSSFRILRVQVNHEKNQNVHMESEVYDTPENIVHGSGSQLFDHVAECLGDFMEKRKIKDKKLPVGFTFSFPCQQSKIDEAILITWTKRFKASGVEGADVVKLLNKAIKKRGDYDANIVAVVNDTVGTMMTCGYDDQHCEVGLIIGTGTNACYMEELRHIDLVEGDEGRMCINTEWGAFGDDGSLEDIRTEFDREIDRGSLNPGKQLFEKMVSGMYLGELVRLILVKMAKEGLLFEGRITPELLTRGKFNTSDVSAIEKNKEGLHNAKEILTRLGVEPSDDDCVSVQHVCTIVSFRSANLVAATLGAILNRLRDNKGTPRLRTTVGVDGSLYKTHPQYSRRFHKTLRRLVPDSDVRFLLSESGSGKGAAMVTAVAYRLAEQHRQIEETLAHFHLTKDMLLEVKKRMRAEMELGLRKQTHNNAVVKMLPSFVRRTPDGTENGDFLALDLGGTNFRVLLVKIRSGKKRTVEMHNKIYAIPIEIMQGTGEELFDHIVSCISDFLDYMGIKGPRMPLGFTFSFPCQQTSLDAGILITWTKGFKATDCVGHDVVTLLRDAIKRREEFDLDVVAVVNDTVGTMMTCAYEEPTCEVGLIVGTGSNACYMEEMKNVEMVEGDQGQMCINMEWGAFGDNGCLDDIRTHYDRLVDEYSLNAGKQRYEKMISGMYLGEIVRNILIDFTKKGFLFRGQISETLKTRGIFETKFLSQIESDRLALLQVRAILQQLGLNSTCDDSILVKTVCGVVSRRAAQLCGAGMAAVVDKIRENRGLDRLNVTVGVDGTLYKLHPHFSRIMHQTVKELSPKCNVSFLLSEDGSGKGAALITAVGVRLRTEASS
T9 sequence (P50991 whole entry): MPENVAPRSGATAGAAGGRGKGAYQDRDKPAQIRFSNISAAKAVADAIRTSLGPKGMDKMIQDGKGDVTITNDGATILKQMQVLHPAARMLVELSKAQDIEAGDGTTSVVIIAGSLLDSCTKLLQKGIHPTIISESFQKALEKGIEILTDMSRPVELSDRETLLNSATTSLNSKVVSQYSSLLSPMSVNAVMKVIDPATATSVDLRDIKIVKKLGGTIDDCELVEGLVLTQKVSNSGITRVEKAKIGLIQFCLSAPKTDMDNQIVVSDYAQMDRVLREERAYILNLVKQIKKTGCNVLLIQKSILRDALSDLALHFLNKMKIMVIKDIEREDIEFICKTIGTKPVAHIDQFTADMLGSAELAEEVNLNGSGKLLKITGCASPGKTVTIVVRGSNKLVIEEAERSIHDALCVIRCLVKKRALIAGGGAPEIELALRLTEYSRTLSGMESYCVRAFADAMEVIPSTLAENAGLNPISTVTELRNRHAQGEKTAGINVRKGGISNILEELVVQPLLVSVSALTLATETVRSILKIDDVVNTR
T3 sequence (Q9UI42 114-421): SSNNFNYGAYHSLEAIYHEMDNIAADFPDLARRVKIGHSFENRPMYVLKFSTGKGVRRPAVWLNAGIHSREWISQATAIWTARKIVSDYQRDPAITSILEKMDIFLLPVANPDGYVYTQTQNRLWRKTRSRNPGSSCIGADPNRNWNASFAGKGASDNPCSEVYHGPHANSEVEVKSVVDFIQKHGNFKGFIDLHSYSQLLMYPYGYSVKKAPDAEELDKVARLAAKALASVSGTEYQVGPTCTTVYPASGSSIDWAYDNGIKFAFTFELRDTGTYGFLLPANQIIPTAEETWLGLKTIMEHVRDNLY
T4 sequence (P49368 whole entry): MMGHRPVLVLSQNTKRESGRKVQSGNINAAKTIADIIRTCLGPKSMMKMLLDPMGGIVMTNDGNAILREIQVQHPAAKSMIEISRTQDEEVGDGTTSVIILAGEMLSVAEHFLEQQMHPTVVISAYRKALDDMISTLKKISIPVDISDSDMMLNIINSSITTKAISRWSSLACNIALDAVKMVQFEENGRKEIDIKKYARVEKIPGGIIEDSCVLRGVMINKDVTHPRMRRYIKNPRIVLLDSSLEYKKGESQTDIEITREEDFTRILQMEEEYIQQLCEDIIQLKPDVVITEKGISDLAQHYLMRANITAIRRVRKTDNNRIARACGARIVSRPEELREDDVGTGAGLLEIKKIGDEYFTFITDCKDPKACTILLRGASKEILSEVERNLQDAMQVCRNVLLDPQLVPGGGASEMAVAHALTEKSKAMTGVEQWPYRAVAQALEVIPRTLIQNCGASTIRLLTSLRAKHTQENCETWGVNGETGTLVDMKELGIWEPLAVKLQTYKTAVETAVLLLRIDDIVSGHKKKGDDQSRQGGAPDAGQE

Cn1c2c(c(=N)c3c1CCC3)CCC2 [Compound 1, 4-methyl-2,3,4,5,6,7-hexahydrodicyclopenta[b,e]pyridin-8(1H)-imine]
Difference ([1]; Cmpd minus DMSO, -LOG(P-value) 0.742167): 3.21
iBAQ Cmpd ([1]; replicates 1-3): 19.3082 and 19.1191 and 19.5272
Difference ([2]; Cmpd minus DMSO, -LOG(P-value) 0.981964): 1.653
iBAQ Cmpd ([2]; replicates 1-3): 17.9091 and 17.4238 and 17.5156
Difference ([3]; Cmpd minus DMSO, -LOG(P-value) 1.07291): -1.567
iBAQ Cmpd ([3]; replicates 1-3): 17.2042 and 16.9875 and 16.0895
Difference ([4]; Cmpd minus DMSO, -LOG(P-value) 0.937615): 0.5386
iBAQ Cmpd ([4]; replicates 1-3): 20.7218 and 21.2363 and 20.6211
Difference ([5]; Cmpd minus DMSO, -LOG(P-value) 0.715156): 2.317
iBAQ Cmpd ([5]; replicates 1-3): 18.0201 and 21.1113 and 16.886
Difference ([6]; Cmpd minus DMSO, -LOG(P-value) 0.865251): 0.2314
iBAQ Cmpd ([6]; replicates 1-3): 25.9383 and 25.6872 and 25.6067
Difference ([7]; Cmpd minus DMSO, -LOG(P-value) 0.846922): 1.578
iBAQ Cmpd ([7]; replicates 1-3): 17.3529 and 17.1229 and 16.9849
Difference ([8]; Cmpd minus DMSO, -LOG(P-value) 0.819941): -1.912
iBAQ Cmpd ([8]; replicates 1-3): 15.6356 and 17.305 and 16.0247
Difference ([9]; Cmpd minus DMSO, -LOG(P-value) 0.713793): 0.7229
iBAQ Cmpd ([9]; replicates 1-3): 21.0359 and 20.6692 and 20.6092
Difference ([10]; Cmpd minus DMSO, -LOG(P-value) 0.855582): 0.9514
iBAQ Cmpd ([10]; replicates 1-3): 18.5229 and 17.0452 and 17.0803
